{
  "source": "ChEMBL document CHEMBL6103573",
  "about": "“Discovery of novel thienopyridine indole derivatives as inhibitors of tubulin polymerization targeting the colchicine-binding site with potent anticancer activities” (Eur J Med Chem, 2025)",
  "key": {"[1]": {"system": "HGC-27", "test": "Induction of apoptosis in human HGC-27 cells assessed as total apoptotic rate at 2 nmol/L incubated for 48 hrs by Annexin V-FITC/propidium iodide staining based flow cytometry analysis relative to control", "type": "functional"}, "[2]": {"system": "MGC-803", "test": "Antitumor activity against human MGC-803 cells xenografted in female BALB/c-nu nude mouse assessed as tumor inhibition rate at 5 mg/kg, po administrated every other day for 11 times and measured after 21 days relative to control", "type": "functional", "conditions": "MGC-803, 504 h, time 21 day, read-out: TGI"}, "[3]": {"system": "MGC-803", "test": "Antitumor activity against human MGC-803 cells xenografted in female BALB/c-nu nude mouse assessed as increase in p-Histone H3 level in tumor at 5 mg/kg, po administrated every other day for 11 times and measured after 21 days by immunohistochemical analysis", "type": "functional, organism-based", "conditions": "time 21.0 day"}, "[4]": {"system": "HGC-27", "test": "Induction of apoptosis in human HGC-27 cells assessed as increase in cleaved Caspase-3 expression at 0.25 to 2.0 nmol/L incubated for 48 hrs by Western blotting analysis", "type": "functional, cell-based", "conditions": "dose 0.25-2 nmol/L"}, "[5]": {"system": "HGC-27", "test": "Induction of apoptosis in human HGC-27 cells assessed as late apoptotic cells at 1.0 nmol/L incubated for 48 hrs by Annexin V-FITC/propidium iodide staining based flow cytometry analysis (reference value: 3.70 %)", "type": "functional"}, "[6]": {"system": "MGC-803", "test": "Induction of apoptosis in human MGC-803 cells assessed as total apoptotic rate at 2 nmol/L incubated for 48 hrs by Annexin V-FITC/propidium iodide staining based flow cytometry analysis relative to control", "type": "functional"}, "[7]": {"system": "HGC-27", "test": "Induction of apoptosis in human HGC-27 cells assessed as early apoptotic cells at 2.0 nmol/L incubated for 48 hrs by Annexin V-FITC/propidium iodide staining based flow cytometry analysis (reference value: 2.04 %)", "type": "functional"}, "[8]": {"molecular_target": "T1, Tubulin beta (Homo sapiens) (UniProt P68371+Q9H4B7+Q13509+P04350+Q3ZCM7+P07437+Q13885+Q9BVA1+Q9BUF5+A6NNZ2)", "test": "Competitive binding affinity to beta-tubulin colchicine binding site in human HGC-27 cells assessed as inhibition of EBI-beta-tubulin adduct band formation by measuring reduction in adduct band intensity preincubated for 2 hrs followed by EBI addition and measured after 2 hrs by Western blotting analysis", "type": "cell-based", "conditions": "dose 0.1-1 µmol/L, time 4.0 hrs"}, "[9]": {"system": "HGC-27", "test": "Induction of apoptosis in human HGC-27 cells assessed as increase in nuclei brightness at 0.25 to 2.0 nmol/L incubated for 48 hrs by DAPI staining based analysis", "type": "functional, cell-based", "conditions": "dose 0.25-2 nmol/L"}, "[10]": {"system": "MGC-803", "test": "Induction of apoptosis in human MGC-803 cells assessed as downregulation of Bcl-2 expression incubated for 48 hrs by Western blotting analysis", "type": "functional, cell-based", "conditions": "dose 0.25-2 nmol/L"}, "[11]": {"system": "HGC-27", "test": "Antiproliferative activity against human HGC-27 cells assessed as inhibition of cell proliferation incubated for 48 hrs by MTT assay", "type": "functional, cell-based", "conditions": "HGC-27, 48 h"}, "[12]": {"system": "NCI-N87", "test": "Antiproliferative activity against human NCI-N87 cells assessed as inhibition of cell proliferation incubated for 48 hrs by MTT assay", "type": "functional, cell-based", "conditions": "NCI-N87, 48 h"}, "[13]": {"system": "MGC-803", "test": "Induction of apoptosis in human MGC-803 cells assessed as early apoptotic cells at 1.5 nmol/L incubated for 48 hrs by Annexin V-FITC/propidium iodide staining based flow cytometry analysis (reference value: 0.83 %)", "type": "functional"}, "[14]": {"system": "MGC-803", "test": "Induction of apoptosis in human MGC-803 cells assessed as early apoptotic cells at 0.5 nmol/L incubated for 48 hrs by Annexin V-FITC/propidium iodide staining based flow cytometry analysis (reference value: 0.83 %)", "type": "functional"}, "[15]": {"system": "MGC-803", "test": "Antitumor activity against human MGC-803 cells xenografted in female BALB/c-nu nude mouse assessed as increase in apoptotic cells at 5 mg/kg, po administrated every other day for 11 times and measured after 21 days by TUNEL staining based assay", "type": "functional, organism-based", "conditions": "time 21.0 day"}, "[16]": {"system": "SGC-7901", "test": "Antiproliferative activity against human SGC-7901 cells assessed as inhibition of cell proliferation incubated for 48 hrs by MTT assay", "type": "functional, cell-based", "conditions": "SGC-7901, 48 h"}, "[17]": {"system": "HGC-27", "test": "Induction of cell cycle arrest in human HGC-27 cells assessed as downregulation of Cdc2 phosphorylation at Tyr15 residue measured after 48 hrs by Western blot analysis", "type": "functional, cell-based", "conditions": "dose 0.25-2 nmol/L"}, "[18]": {"system": "HGC-27", "test": "Induction of apoptosis in human HGC-27 cells assessed as downregulation of Bcl-2 expression incubated for 48 hrs by Western blotting analysis", "type": "functional, cell-based", "conditions": "dose 0.25-2 nmol/L"}, "[19]": {"system": "MGC-803", "test": "Induction of apoptosis in human MGC-803 cells assessed as early apoptotic cells at 2.0 nmol/L incubated for 48 hrs by Annexin V-FITC/propidium iodide staining based flow cytometry analysis (reference value: 0.83 %)", "type": "functional"}, "[20]": {"test": "Toxicity in female BALB/c-nu nude mouse xenografted with human MGC-803 cells assessed as change in spleen morphology at 5 mg/kg, po administrated every other day for 11 times and measured after 21 days by hematoxylin and eosin staining based analysis", "type": "organism-based", "conditions": "in vivo, 504 h, time 21 day"}, "[21]": {"system": "NCI-H1975", "test": "Antiproliferative activity against human NCI-H1975 cells assessed as inhibition of cell proliferation incubated for 48 hrs by MTT assay", "type": "functional, cell-based", "conditions": "NCI-H1975, 48 h"}, "[22]": {"system": "MGC-803", "test": "Anti-migratory activity against human MGC-803 cells assessed as decrease in cell migration at 1 nmol/L measured after 24 hrs by wound healing assay relative to control", "type": "functional", "parameters": "scale not given: the % may be the effect or the level left"}, "[23]": {"system": "HCT-116", "test": "Antiproliferative activity against human HCT-116 cells assessed as inhibition of cell proliferation incubated for 48 hrs by MTT assay", "type": "functional, cell-based", "conditions": "HCT-116, 48 h"}, "[24]": {"system": "HGC-27", "test": "Anti-migratory activity against human HGC-27 cells assessed as decrease in cell migration at 1 nmol/L measured after 24 hrs by wound healing assay relative to control", "type": "functional", "parameters": "scale not given: the % may be the effect or the level left"}, "[25]": {"system": "MGC-803", "test": "Induction of apoptosis in human MGC-803 cells assessed as increase in cleaved Caspase-7 expression at 0.25 to 2.0 nmol/L incubated for 48 hrs by Western blotting analysis", "type": "functional, cell-based", "conditions": "dose 0.25-2 nmol/L"}, "[26]": {"system": "HGC-27", "test": "Inhibition of colony formation in human HGC-27 cells at 0.5 nmol/L incubated for 7 days by crystal violet staining based colony formation assay relative to control", "type": "functional", "conditions": "HGC-27, 168 h, time 7 day"}, "[27]": {"system": "ECa-109 cell line", "test": "Antiproliferative activity against human EC109 cells assessed as inhibition of cell proliferation incubated for 48 hrs by MTT assay", "type": "functional, cell-based", "conditions": "ECa-109, 48 h"}, "[28]": {"system": "HGC-27", "test": "Induction of apoptosis in human HGC-27 cells assessed as appearance of bright cells at 0.25 to 2.0 nmol/L incubated for 48 hrs by bright field microscopic analysis", "type": "functional, cell-based", "conditions": "dose 0.25-2 nmol/L"}, "[29]": {"molecular_target": "T1, Tubulin beta (Homo sapiens)", "test": "Competitive binding affinity to beta-tubulin colchicine binding site in human MGC-803 cells assessed as inhibition of EBI-beta-tubulin adduct band formation by measuring reduction in adduct band intensity preincubated for 2 hrs followed by EBI addition and measured after 2 hrs by Western blotting analysis", "type": "cell-based", "conditions": "dose 0.1-1 µmol/L, time 4.0 hrs"}, "[30]": {"system": "HUVEC", "test": "Anti-migratory activity against HUVEC cells assessed as wound healing rate at 0.5 nmol/L measured after 24 hrs by wound healing assay (reference value: 97 %)", "type": "functional, Homo sapiens"}, "[31]": {"system": "HUVEC", "test": "Anti-vascular activity in HUVEC cells assessed as reduction in length of tubular network incubated for 5 hrs by Matrigel based inverted microscopic analysis", "type": "functional, cell-based", "conditions": "Homo sapiens, dose 0.5-2 nmol/L"}, "[32]": {"system": "HGC-27", "test": "Antiproliferative activity against human HGC-27 cells by MTT assay", "type": "functional, cell-based", "conditions": "dose 0.25-2 nmol/L"}, "[33]": {"system": "HUVEC", "test": "Anti-angiogenesis activity in HUVEC cells assessed as reduction in cell viability by measuring survival rate at 2 nmol/L incubated for 24 hrs by MTT assay relative to control", "type": "functional", "conditions": "Homo sapiens, read-out: Survival"}},
  "note": "Calls of active or inactive are those of the source. The calls are words filed in the database; no cut-off is given here.",
  "data": [
    {"smiles": "CN(c1ccc2c(ccn2C)c1)c1nc(N2CCCC2)nc2sccc12", "values": [
      {"measurement": "Activity", "setting": "[1]", "result": 20, "unit": "%"},
      {"measurement": "inhibition in vivo at 5 mg/kg", "setting": "[2]", "result": 45.8, "unit": "%"},
      {"measurement": "Activity", "setting": "[3]", "result": "Active"},
      {"measurement": "Activity", "setting": "[4]", "result": "Active"},
      {"measurement": "Activity", "setting": "[5]", "result": 3.98, "unit": "%"},
      {"measurement": "Activity", "setting": "[6]", "result": 63, "unit": "%"},
      {"measurement": "Activity", "setting": "[7]", "result": 14.4, "unit": "%"},
      {"measurement": "Activity", "setting": "[8]", "result": "Dose-dependent-effect"},
      {"measurement": "Activity", "setting": "[9]", "result": "Active"},
      {"measurement": "Activity", "setting": "[10]", "result": "Dose-dependent-effect"},
      {"measurement": "IC50", "setting": "[11]", "result": 1.82, "unit": "nM"},
      {"measurement": "IC50", "setting": "[12]", "result": 2.14, "unit": "nM"},
      {"measurement": "Activity", "setting": "[13]", "result": 43.09, "unit": "%"},
      {"measurement": "Activity", "setting": "[14]", "result": 3.33, "unit": "%"},
      {"measurement": "Activity", "setting": "[15]", "result": "Active"},
      {"measurement": "IC50", "setting": "[16]", "result": 2.01, "unit": "nM"},
      {"measurement": "Activity", "setting": "[17]", "result": "Dose-dependent-effect"},
      {"measurement": "Activity", "setting": "[18]", "result": "Dose-dependent-effect"},
      {"measurement": "Activity", "setting": "[19]", "result": 54.93, "unit": "%"},
      {"measurement": "Activity", "setting": "[20]", "result": "Non-toxic"},
      {"measurement": "IC50", "setting": "[21]", "result": 2.96, "unit": "nM"},
      {"measurement": "Activity", "setting": "[22]", "result": 24, "unit": "%"},
      {"measurement": "IC50", "setting": "[23]", "result": 2.89, "unit": "nM"},
      {"measurement": "Activity", "setting": "[24]", "result": 17, "unit": "%"},
      {"measurement": "Activity", "setting": "[25]", "result": "Active"},
      {"measurement": "inhibition at 0.0005 µM", "setting": "[26]", "result": "> 90", "unit": "%"},
      {"measurement": "IC50", "setting": "[27]", "result": 2.19, "unit": "nM"},
      {"measurement": "Activity", "setting": "[28]", "result": "Active"},
      {"measurement": "Activity", "setting": "[29]", "result": "Dose-dependent-effect"},
      {"measurement": "Activity", "setting": "[30]", "result": 82, "unit": "%"},
      {"measurement": "Activity", "setting": "[31]", "result": "Dose-dependent-effect"},
      {"measurement": "Activity", "setting": "[32]", "result": "Dose-dependent-effect"},
      {"measurement": "viability at 0.002 µM", "setting": "[33]", "result": 59.2, "unit": "%"}
    ]}
  ]
}
